# Square brackets hold non-standard residues; d marks the D form. Ends that are not written are not given here. Peptide text beside a SMILES is read from it. * marks the point of attachment. Octanoyl = CCCCCCCC(=O)*
# Tested on: murine Spontaneous Ovarian Teratoma cells (SOT cells)
# Test: Survival and ascites accumulation of mice injected with Spontaneous Ovarian Teratoma cells
# Format: in vivo
# Settings: for ILS / Median Survival Time: Table I, i.p. days 2 and 5 after SOT cells; for delay of accumulation of ascites fluid (body weight data): Example 1, FIG. 1, untreated mice began to accumulate fluid 5 to 7 days after implantation; for increase in lifespan: Example 1, FIG. 2, median day of death as endpoint; for accumulation of ascites fluid (body weight data) vs control group: Example 3, FIG. 4, peptides 20 mg/kg at 2 days, or 2 and 5 days, adriamycin 5 mg/kg on day 2 only; for survival time and survivors vs control group: Example 3, FIG. 3, 20 mg/kg at 2 days, or at 2 days and 5 days after SOT cells
# Protocol: Groups of mice, with six mice in each group, were injected with murine Spontaneous Ovarian Teratoma cells (SOT cells). At day 2, or at day 2 and day 5 after injection, the mice were injected with a saline solution, 5 mg/kg adriamycin (day 2 only), with 22 mg/kg of a peptide having the structure (SEQ ID NO:115)-NH2, or, in which each amino acid residue of (SEQ ID NO:115)-NH2 is a D-amino acid residue, such peptide hereinafter referred to as D-(SEQ ID NO:115)-NH2 or with 130 mg/kg of Cecropin A (SEQ ID NO:116)-NH2. The animals were monitored for survival time, the number of survivors in each group, the increase in lifespan, and the increase in body weight.
# The treatment with adriamycin increased the lifespan by 76%.
# Groups of mice, with 5 or 6 mice in each group, were injected with Spontaneous Ovarian Teratoma Cells. At 2 days and 5 days after the injection of the Spontaneous Ovarian Teratoma Cells (SOT cells), the groups of mice were injected intraperitoneally with a control saline solution, adriamycin, or with one of the following peptides:
# The mice in each group were then monitored for median survival time (in days) and for increase in life span (ILS) vis a vis the control group. The median survival time is the day of death of the third mouse in each group. The results for the groups of mice given intraperitoneal injections of peptide at days 2 and 5 following injection of SOT cells are given in Table I below.
# Groups of mice, with 6 mice in each group, were injected with Spontaneous Ovarian Teratoma Cells as described in Example 2. At 2 days, or at 2 days and 5 days after the injection of the SOT cells, the groups of mice were injected with saline (control), adriamycin (5 mg/kg-on day 2 only), or with 20 mg/kg of (SEQ ID NO:115)-NH2 or D-(SEQ ID NO:115)-NH2. The mice were then monitored for survival time, as well as for body weight.
# [1] = 22 mg/kg D-(SEQ ID NO:115)-NH2, 130 mg/kg (SEQ ID NO:116)-NH2, 5 mg/kg adriamycin
# [2] = administered on day 2 only, 22 mg/kg D-(SEQ ID NO:115)-NH2, 130 mg/kg (SEQ ID NO:116)-NH2, 5 mg/kg adriamycin
# [3] = administered on day 2 and day 5, 22 mg/kg D-(SEQ ID NO:115)-NH2, 130 mg/kg (SEQ ID NO:116)-NH2
# [4] = dose 130 mg/kg/day, control value not given
molecule,measurement,setting,value
CCCCCCCC(=O)N[C@@H](CCCCN)C(=O)N[C@H](C(=O)N[C@@H](C)C(=O)NCC(=O)N[C@@H](CCCCN)C(=O)N[C@H](C(=O)N[C@@H](C)C(=O)N[C@@H](CCCCN)C(=O)N[C@H](C(=O)N[C@@H](C)C(=O)NCC(=O)N[C@@H](CCCCN)C(=O)N[C@H](C(=O)N[C@@H](C)C(=O)N[C@@H](CCCCN)C(=O)N[C@H](C(=O)N[C@@H](C)C(=O)NCC(=O)N[C@@H](CCCCN)C(=O)N[C@H](C(=O)N[C@@H](C)C(N)=O)[C@@H](C)CC)[C@@H](C)CC)[C@@H](C)CC)[C@@H](C)CC)[C@@H](C)CC)[C@@H](C)CC [Oct-(SEQ ID NO:27)-NH2] (Octanoyl-KIAGKIAKIAGKIAKIAGKIA-NH2),ILS,"dose 20 mg/kg/day, controls 21",100%
same,Median Survival Time,"dose 20 mg/kg/day, controls 21",42 days
"COc1cccc2c1C(=O)c1c(O)c3c(c(O)c1C2=O)C[C@@](O)(C(=O)CO)C[C@@H]3O[C@H]1C[C@H](N)[C@H](O)[C@H](C)O1 [adriamycin, reference compound]",delay of accumulation of ascites fluid (body weight data),[1],at least 20 days
same,increase in lifespan,[2],76%
same,accumulation of ascites fluid (body weight data) vs control group,,delayed and was also significantly less
(SEQ ID NO:115)-NH2: peptide having the structure (SEQ ID NO:115)-NH2; sequence not printed in the text (GIGKFLKKAKKFAKAFVKIINN-NH2),survival time and survivors vs control group,,significantly greater survival times and had more survivors
same,accumulation of ascites fluid (body weight data) vs control group,,delayed and was also significantly less
same,ILS,"dose 20 mg/kg/day, controls 21",100%
same,Median Survival Time,"dose 20 mg/kg/day, controls 21",42 days
same,ILS,"dose 22 mg/kg/day, controls 21",81%
same,Median Survival Time,"dose 22 mg/kg/day, controls 21",38 days
"(SEQ ID NO:116)-NH2: Cecropin A, amide (KWKLFKKIEKVGQNIRDGIIKAGPAVAVVGQATQIAK-NH2)",delay of accumulation of ascites fluid (body weight data),[1],at least 20 days
same,increase in lifespan,[3],112%
same,increase in lifespan,[2],100%
same,ILS,[4],112%
same,Median Survival Time,[4],36 days
"(SEQ ID NO:117)-NH2: peptide of the sequence listing, amide; sequence not printed in the text (GIGKFLKSAKKFGKAFVKILNS-NH2)",ILS,"dose 45 mg/kg/day, controls 21",83%
same,Median Survival Time,"dose 45 mg/kg/day, controls 21",38 days
D-(SEQ ID NO:115)-NH2: (SEQ ID NO:115)-NH2 in which each amino acid residue is a D-amino acid residue (G[dI]G[dK][dF][dL][dK][dK][dA][dK][dK][dF][dA][dK][dA][dF][dV][dK][dI][dI][dN][dN]-NH2; N-terminus assumed; SMILES CC[C@@H](C)[C@@H](NC(=O)CN)C(=O)NCC(=O)N[C@H](CCCCN)C(=O)N[C@H](Cc1ccccc1)C(=O)N[C@H](CC(C)C)C(=O)N[C@H](CCCCN)C(=O)N[C@H](CCCCN)C(=O)N[C@H](C)C(=O)N[C@H](CCCCN)C(=O)N[C@H](CCCCN)C(=O)N[C@H](Cc1ccccc1)C(=O)N[C@H](C)C(=O)N[C@H](CCCCN)C(=O)N[C@H](C)C(=O)N[C@H](Cc1ccccc1)C(=O)N[C@@H](C(=O)N[C@H](CCCCN)C(=O)N[C@@H](C(=O)N[C@@H](C(=O)N[C@H](CC(N)=O)C(=O)N[C@H](CC(N)=O)C(N)=O)[C@H](C)CC)[C@H](C)CC)C(C)C),delay of accumulation of ascites fluid (body weight data),[1],at least 20 days
same,increase in lifespan,[3],144%
same,increase in lifespan,[2],115%
same,survival time and survivors vs control group,,significantly greater survival times and had more survivors
same,accumulation of ascites fluid (body weight data) vs control group,,delayed and was also significantly less
same,ILS,"dose 22 mg/kg/day, controls 17",144%
same,Median Survival Time,"dose 22 mg/kg/day, controls 17",41.5 days
same,ILS,"dose 22 mg/kg/day, controls 21",52%
same,Median Survival Time,"dose 22 mg/kg/day, controls 21",32 days
D-(SEQ ID NO:117)-NH2: D-form of (SEQ ID NO:117)-NH2 (G[dI]G[dK][dF][dL][dK][dS][dA][dK][dK][dF]G[dK][dA][dF][dV][dK][dI][dL][dN][dS]-NH2; N-terminus assumed; SMILES CC[C@@H](C)[C@@H](NC(=O)CN)C(=O)NCC(=O)N[C@H](CCCCN)C(=O)N[C@H](Cc1ccccc1)C(=O)N[C@H](CC(C)C)C(=O)N[C@H](CCCCN)C(=O)N[C@H](CO)C(=O)N[C@H](C)C(=O)N[C@H](CCCCN)C(=O)N[C@H](CCCCN)C(=O)N[C@H](Cc1ccccc1)C(=O)NCC(=O)N[C@H](CCCCN)C(=O)N[C@H](C)C(=O)N[C@H](Cc1ccccc1)C(=O)N[C@@H](C(=O)N[C@H](CCCCN)C(=O)N[C@@H](C(=O)N[C@H](CC(C)C)C(=O)N[C@H](CC(N)=O)C(=O)N[C@H](CO)C(N)=O)[C@H](C)CC)C(C)C),ILS,"dose 15 mg/kg/day, controls 21",67%
same,Median Survival Time,"dose 15 mg/kg/day, controls 21",35 days

# Reference: patent US5635479A, “Treatment of gynecological malignancies with biologically active peptides” (Magainin Pharmaceuticals Inc., priority 1995, dated 1997)
